Counter-ions that a name gives are not always drawn.
Test: collision cross section in nitrogen (drift tube, single-field); higher = larger gas-phase ion size
[1] = ion type: [M-H], ion source: ESI, ion mode: Negative
[2] = ion type: [M+H], ion source: APCI, ion mode: Positive
[3] = ion type: [M+H], ion source: ESI, ion mode: Positive
[4] = ion type: [M+Na], ion source: ESI, ion mode: Positive
[5] = ion type: [M+], ion source: APCI, ion mode: Positive
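Further: chemical standards at 10 µM analysed by drift tube IMS-QTOF MS in about 3.95 torr nitrogen, mean of duplicate injections differing ≤1%, mass error below 10 ppm.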

| Structure (SMILES) | collision cross section in nitrogen [1] | collision cross section in nitrogen [2] | collision cross section in nitrogen [3] | collision cross section in nitrogen [4] | collision cross section in nitrogen [5] |
| --- | --- | --- | --- | --- | --- |
| O=C(O)C1(C(=O)Nc2ccc(Cl)cc2Cl)CC1 [Cyclanilide] | 156.3 Å² |  |  |  |  |
| N=c1ccn2c(n1)O[C@H]1[C@H](O)[C@@H](CO)O[C@H]12 [Cyclocytidine] |  | 143.1 Å² | 143.5 Å² | 156.7 Å² |  |
| O=P1(N(CCCl)CCCl)NCCCO1 (stereo not drawn) [Cyclophosphamide monohydrate] |  | 148 Å² | 147.6 Å² | 154.6 Å² |  |
| O=P1(N(CCCl)CCCl)NCCCO1 (stereo not drawn) [Cyclophosphamide] |  | 147.8 Å² | 147.7 Å² | 154.6 Å² |  |
| CCCCOC(=O)[C@@H](C)Oc1ccc(Oc2ccc(C#N)cc2F)cc1 [Cyhalofop-butyl] |  |  |  | 191.2 Å² |  |
| CC(C1CC1)C(O)(Cn1cncn1)c1ccc(Cl)cc1 (stereo not drawn) [Cyproconazole] |  | 170.6 Å² | 170.2 Å² |  |  |
| Cc1cc(C2CC2)nc(Nc2ccccc2)n1 [Cyprodinil] |  | 153.1 Å² | 153.4 Å² |  |  |
| CC(=O)O[C@]1(C(C)=O)CC[C@H]2[C@@H]3C=C(Cl)C4=CC(=O)[C@@H]5C[C@@H]5[C@]4(C)[C@H]3CC[C@@]21C [Cyproterone acetate] | 201.5 Å² |  | 201.9 Å² |  |  |
| Nc1nc(N)nc(NC2CC2)n1 [Cyromazine] |  | 135.6 Å² | 135.9 Å² |  |  |
| Nc1ccn([C@@H]2O[C@H](CO)[C@@H](O)[C@@H]2O)c(=O)n1 [Cytarabine hydrochloride] |  |  |  | 157.1 Å² |  |
| Nc1ccn([C@@H]2O[C@H](CO)[C@@H](O)[C@@H]2O)c(=O)n1 [Cytarabine] |  |  |  | 156.9 Å² |  |
| Nc1ccnc(=O)[nH]1 [Cytosine] |  | 117.3 Å² | 118.8 Å² |  |  |
| O=C1c2ccccc2C(=O)C1c1ccc2ccccc2n1 [D & C Yellow 11] | 163.8 Å² |  | 158.6 Å² |  |  |
| O=C1OC2(c3cc(Br)c(O)c(Br)c3Oc3c2cc(Br)c(O)c3Br)c2c(Cl)c(Cl)c(Cl)c(Cl)c21 [D&C Red 27] | 226.8 Å² |  |  |  |  |
| Cc1ccc(Nc2ccc(O)c3c2C(=O)c2ccccc2C3=O)cc1 [D&C Violet 2] |  | 176.9 Å² | 176.7 Å² |  | 174 Å² |
| OC[C@@H](O)[C@@H](O)[C@H](O)[C@@H](O)CO [D-Glucitol] | 132.3 Å² |  |  | 143.4 Å² |  |
| O=C(O)[C@H](O)[C@@H](O)[C@H](O)[C@H](O)CO [D-Gluconic acid] | 133.2 Å² |  |  |  |  |
| OC[C@@H](O)[C@@H](O[C@@H]1O[C@H](CO)[C@H](O)[C@H](O)[C@H]1O)[C@H](O)[C@@H](O)CO [D-Lactitol monohydrate] | 171.4 Å² |  |  | 175.3 Å² |  |
| OC[C@@H](O)[C@@H](O)[C@H](O)[C@H](O)CO [D-Mannitol] | 132.5 Å² |  |  | 141.5 Å² |  |
| CCN(CC)C(=O)c1cccc(C)c1 [DEET] |  | 143.5 Å² | 143.6 Å² | 160.2 Å² |  |
| CN(C)NC(=O)CCC(=O)O [Daminozide] | 135.2 Å² |  |  | 142.5 Å² |  |
| O=C1CN(N=Cc2ccc(-c3ccc([N+](=O)[O-])cc3)o2)C(=O)N1 [Dantrolene sodium] | 180 Å² |  |  |  |  |

| Structure (SMILES) | collision cross section in nitrogen [1] | collision cross section in nitrogen [2] | collision cross section in nitrogen [3] | collision cross section in nitrogen [4] | collision cross section in nitrogen [5] |
| --- | --- | --- | --- | --- | --- |
| Nc1ccc(S(=O)(=O)c2ccc(N)cc2)cc1 [Dapsone] | 157.9 Å² | 155.5 Å² | 155 Å² | 170.7 Å² |  |
| CC(C)(C)c1cc(/C=C2\SC(=N)NC2=O)cc(C(C)(C)C)c1O [Darbufelone mesylate] | 186.1 Å² | 188.3 Å² | 188 Å² | 207.3 Å² |  |
| O=C(O)CCCCCCCCC(=O)O [Decanedioic acid] | 144.6 Å² |  |  |  |  |
| CCCCCCCCCC(=O)O [Decanoic acid] | 149.5 Å² |  |  |  |  |
| CCCCCCCCCCOC(C)=O [Decyl acetate] | 155 Å² |  |  |  |  |
| CCCCCCCCCCO[C@@H]1O[C@H](CO)[C@@H](O)[C@H](O)[C@H]1O [Decyl beta-D-glucopyranoside] | 192.6 Å² |  |  | 187.7 Å² |  |
| CC(=O)OCC(=O)[C@@]12N=C(C)O[C@@H]1C[C@H]1[C@@H]3CCC4=CC(=O)C=C[C@]4(C)[C@H]3[C@@H](O)C[C@@]12C [Deflazacort] | 206.7 Å² | 205.2 Å² | 204.8 Å² | 213.4 Å² |  |
| CC(C)c1ccc2c(c1)CC[C@H]1[C@](C)(CN)CCC[C@]21C [Dehydroabietylamine acetate] |  | 188.9 Å² |  |  |  |
| CC(C)c1ccc2c(c1)CC[C@H]1[C@](C)(CN)CCC[C@]21C [Dehydroabietylamine] |  |  | 188.3 Å² |  |  |
| Cc1ccc2nc(-c3ccc(N)cc3)sc2c1 [Dehydrothio-4-toluidine] | 155.8 Å² | 153.9 Å² | 153.9 Å² |  | 153.5 Å² |
| CCNc1nc(N)nc(Cl)n1 [Deisopropylatrazine] |  | 133.5 Å² | 133.7 Å² |  |  |
| CCS(=O)(=O)CCSP(=O)(OC)OC [Demeton-S-methyl sulfone] |  | 144.5 Å² | 145 Å² | 155.1 Å² |  |
| CCOP(=O)(OCC)SCCSCC [Demeton-S] |  |  |  | 162.4 Å² |  |
| CC(C)Nc1nc(N)nc(Cl)n1 [Desethylatrazine] |  | 139.3 Å² | 139.4 Å² |  |  |
| C[C@@H]1C[C@H]2[C@@H]3CCC4=CC(=O)C=C[C@]4(C)[C@@]3(F)[C@@H](O)C[C@]2(C)[C@@]1(O)C(=O)COP(=O)(O)O [Dexamethasone sodium phosphate] | 201 Å² |  |  |  |  |
| C[C@@H]1C[C@H]2[C@@H]3CCC4=CC(=O)C=C[C@]4(C)[C@@]3(F)[C@@H](O)C[C@]2(C)[C@@]1(O)C(=O)CO [Dexamethasone] |  |  | 177.6 Å² | 216.8 Å² |  |
| COc1ccc2c(c1)[C@]13CCCC[C@@H]1[C@H](C2)N(C)CC3 [Dextromethorphan hydrobromide] |  | 166.1 Å² | 166.7 Å² |  |  |
| CCCCC(CC)COC(=O)c1ccccc1C(=O)OCC(CC)CCCC (stereo not drawn) [Di(2-ethylhexyl) phthalate] |  |  |  | 215.9 Å² |  |
| COCCOC(=O)c1ccccc1C(=O)OCCOC [Di(2-methoxyethyl) phthalate] |  |  |  | 161.7 Å² |  |
| C=C(C)C(=O)OCCOCCOC(=O)C(=C)C [Di(ethylene glycol) dimethacrylate] |  |  |  | 159.5 Å² |  |
| CCCCCCCCOC(=O)c1ccccc1C(=O)OCCCCCCCC [Di-n-octyl phthalate] |  |  |  | 214.6 Å² |  |
| CCCOC(=O)c1ccccc1C(=O)OCCC [Di-n-propylphthalate] |  |  |  | 171.5 Å² |  |

Reference: the supplement of paper PMC12317010
